Consider one compound from US7741344B2, “Process for preparing purified S-BEL and R-BEL and compositions thereof” (Washington University in St. Louis, priority 2002, dated 2010).

Each structure is given as a SMILES string. Where two headings read alike, the source gives them in different places.

Test [1] relates to PAP-1 in mouse P388D1 macrophages. To be noted: ≈25 μM; (33); cited from earlier work.
The target of another test is T1, recombinant human iPLA2γ (Homo sapiens, UniProt Q9NP80).
T1 construct: Recombinant full-length iPLA2γ was expressed in Sf9 cells; made in house; host or cells: Sf9 cells (washed membrane fraction, not purified)
T1 sequence (Q9NP80 1-782): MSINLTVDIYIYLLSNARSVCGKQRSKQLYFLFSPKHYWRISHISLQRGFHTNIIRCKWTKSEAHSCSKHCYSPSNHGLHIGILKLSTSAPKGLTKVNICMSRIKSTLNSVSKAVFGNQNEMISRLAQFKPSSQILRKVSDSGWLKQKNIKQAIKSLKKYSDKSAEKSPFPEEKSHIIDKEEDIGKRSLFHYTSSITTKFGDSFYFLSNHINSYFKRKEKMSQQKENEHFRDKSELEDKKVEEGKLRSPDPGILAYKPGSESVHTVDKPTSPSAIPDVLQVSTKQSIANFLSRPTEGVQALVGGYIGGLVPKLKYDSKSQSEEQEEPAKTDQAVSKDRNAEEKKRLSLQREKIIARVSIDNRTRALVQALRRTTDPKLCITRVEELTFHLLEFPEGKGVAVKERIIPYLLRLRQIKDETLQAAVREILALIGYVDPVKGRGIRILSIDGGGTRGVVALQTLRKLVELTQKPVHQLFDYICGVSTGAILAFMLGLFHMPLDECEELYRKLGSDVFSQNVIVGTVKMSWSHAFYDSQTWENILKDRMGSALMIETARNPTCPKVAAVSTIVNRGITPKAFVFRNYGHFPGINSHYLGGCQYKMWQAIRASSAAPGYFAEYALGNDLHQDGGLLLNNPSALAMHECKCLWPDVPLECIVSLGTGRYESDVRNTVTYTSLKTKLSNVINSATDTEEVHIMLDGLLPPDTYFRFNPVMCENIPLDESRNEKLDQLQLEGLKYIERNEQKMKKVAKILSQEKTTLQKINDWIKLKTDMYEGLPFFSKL
The conditions noted are these: previous experiments (24, 31); cited from earlier work.

Test [2] relates to magnesium-dependent cytozoic phosphatidate phosphohydrolase, PAP-1. To be noted: 25 μM BEL; (33, 34); cited from earlier work.
Test [3] has as its system cytosolic PAP-1 in McA-RH7777 rat hepatoma cells. The conditions noted are these: 100 μM BEL; (17); cited from earlier work.
For test [4], the system named is cytosolic phosphatidate phosphohydrolase (PAP-1). The test can be described thus: Cytosolic phosphatidate phosphohydrolase activity of A-10 cell cytosol fraction. To be noted: concentrations up to 200 μM BEL; FIG. 6A. The format is biochemical, rat. As for the experimental part: Measurement of Cytosolic and Membrane-bound Phosphatidate Phosphohydrolase Activities—A-10 cells were grown to confluency, washed twice in ice-cold phosphate-buffered saline, and harvested in lysis buffer (50 mM Tris-HCl, pH 7.4 containing 0.25 M sucrose and 0.2 mM DTT). After brief sonication utilizing a Vibra-Cell VC4O sonicator (5×1 s pulses at 30% power), the lysed cell suspension was centrifuged at 100,000×g for 1 hr to separate cytosolic and membrane fractions. In some tests, A-10 cells were washed and pretreated with BEL or ethanol vehicle (as described above for tests examining [^3H]-AA liberation) before isolation of cell homogenates. […] Reactions were terminated with 900 μL of 5% acetic acid and extracted into chloroform by the method of Bligh and Dyer (38) prior to separating dipaliitoyl glycerol by TLC utilizing chloroform: methanol: water (65:35:2) as the mobile phase prior to quantification by scintillation spectrometry.
A-10 cells plated on 100 mm dishes were washed 2× in ice-cold PBS and harvested in lysis buffer (50 mM Tris-HCl, pH 7.4 containing 0.25 M sucrose and 0.2 mM DTT). […] In panel B, intact A-10 cells were washed and pretreated with BEL or ethanol vehicle (as described in FIG. 5) before isolation of the cell homogenate and quantification of phosphatidate phosphohydrolase activity as described above. […]

A further test concerns A-10 smooth muscle cells. To be noted: prior studies (10, 29), cited from earlier work.

What is called IC50 is the concentration needed to halve the response being measured. With `O=C1OC(=CBr)CCC1c1cccc2ccccc12` (racemic) [rac-BEL, Racemic (E)-6-(bromomethylene)-3-(1-naphthalenyl)-2H-tetrahydropyran-2-one], the “inhibition of PAP-1 in mouse P388D1 macrophages” value in test [1] is given as “effectively inhibit”. For the same compound, the IC50 at recombinant human iPLA2γ is ~3 µM. In addition, the “inhibition of PAP-1” value in test [2] is “partially inhibit”. Moreover, the “inhibition of cytosolic PAP-1 activity in McA-RH7777 cells” value in test [3] is given as “not significantly inhibited”. In addition, in test [4], the “effect on cytosolic (PAP-1) phosphatidate phosphohydrolase” value is recorded as “lack of any effect”. Also, the “inhibition of AVP-inducible arachidonic acid release” value in the test on A-10 smooth muscle cells (2 μM BEL pretreatment) is reported as “≈ 60%”; in the test on A-10 smooth muscle cells (5 μM BEL pretreatment) it was ~80%.
